Tests used:
[1] = biological target: T1, NaV1.7 (Homo sapiens, UniProt Q15858); assay: Automated patch clamp (Qube 384), internal block of NaV1.7 in HEK293 cells; type: cell-based; settings: compound in internal solution, read-out: NaV1.7 Intracellular Inhibition
T1 construct: expressed in transfected cells; host or cells: HEK293, tetracycline-inducible
Protocol: (§1) NaV1.7 was expressed in HEK293 cells upon induction with tetracycline. Cells were cultured in DMEM containing 10% dialyzed Fetal Bovine Serum (VWR, Radnor, Pa.), 1% Glutamax (VWR, Radnor, Pa.), 1% Penicillin-Streptomycin (VWR, Radnor, Pa.), 100 mg/L Hygromycin (Thermo Fisher Scientific, Waltham, Mass. and 5 mg/L Blasticidin (Alfa Aesar, Haverhill, Mass.). Cells were grown and maintained at 37° C. in a humidified environment containing 10% CO2 in air. Cells were detached from the culture flask for passage and harvested using 0.05% Trypsin-EDTA (Thermo Fisher Scientific, Waltham, Mass.). To induce NaV1.7, cells were induced with tetracycline (0.1-1 μg/mL, IBI Scientific, Peosta, Iowa) the day before recording.
(§2) Before experiments, cells were washed with DPBS (VWR, Radnor, Pa.), digested with Detachin (VWR Radnor, Pa.) and then triturated 10 times in CHO Serum-Free Media (VWR Radnor, Pa.) to resuspend the cells and to break apart cell aggregates. Cells were counted and the final concentration was set at 2-5 million cells per mL.
(§3) The intracellular solution contained the following: 140 mM CsF, 1 mM/5 mM EGTA/CsOH, 10 mM HEPES, 10 mM NaCl, adjusted to pH 7.3 with CsOH, and osmolality to 320 with sucrose. The external solution contained the following: 145 mM NaCl, 4 mM KCl, 1 mM MgCl2, 2 mM CaCl2, 10 mM HEPES, 10 mM Glucose, adjusted to pH 7.4 with CsOH and osmolality to 305 with sucrose. All chemicals are from Sigma-Aldrich, St. Louis, Mo. In order to test the degree of internal block by test compounds, the compounds were dissolved in internal solution at the indicated test concentration. […] In order to test the degree of external block by test compounds the compounds were dissolved in external solution at the indicated test concentration.
(§4) Automated Patch Clamps were performed on Qube 384 (Sophion Bioscience, Woburn Mass.) with multihole Qchips at a temperature setting of 22 degrees. The whole cells configuration was formed with default Qube seal and break-in parameter. The membrane potential was held at −100 mV before the voltage protocol began. Two voltage protocols were followed.
(§5) Step 1: Cells were held at −100 mV with a depolarized pulse to −20 mV for 10 ms, the interval was set at 5 s. Currents were corrected by default leak subtraction from every pulse. The duration was set at 5 mins.
(§6) Step 2: Cells were held at −100 mV with a depolarized pulse to −20 mV for 10 ms. The frequency was 5 Hz. Currents were corrected by leak subtraction calculated before step 2. The duration was set at 4 mins.
After Step 2, the Qchip was removed from the recording chamber. The internal solution was changed with solutions containing test compounds. Qchips were held at −100 mV without pulsing after being replaced in the recording chamber. The total solution switching time was 8 minutes. After the internal solution exchange, Cells were recorded and step 2 for repeated for 10 minutes.
Data analysis was performed by Sophion Analyzer. Cells were filtered with minimum 50 MOhm seal resistance and minimum 5 nA starting current. The rundown of the currents was corrected with control cells (Non-Drug). The remaining was calculated by averaging last 3 points in the end of experiments. The base line was calculated as the average of last 3 points of Step 2. IC50 curves were plotted with DR-plots/Hill function (a dose-response plot with a Hill fit).
Representative examples of the invention were tested for intracellular inhibition of NaV 1.7 in the automated patch clamp assay. Activity Range is reported as IC50: “++++” (<1 μM), “+++” (1-3 μM), “++” (3-10 μM) or “+” (10-30 μM).

[2] = biological target: T1, NaV1.7; assay: Automated patch clamp (Qube 384), external block of NaV1.7 in HEK293 cells; type: cell-based; settings: compound in external solution, read-out: NaV1.7 Extracellular Inhibition
Protocol: as §1, §2, §3, §4, §5, §6
After Step 2, the external solution was changed with solutions containing test compounds. Qchips were held at −100 mV without pulsing. The total solution switching time was 8 minutes. After the external solution exchange, cells were recorded using the same procedure as step 2 for 10 minutes.
Data analysis was performed by Sophion Analyzer. Data were corrected with control cells (Non-Drug). The IC50 data were plotted with DR-plots/Hill function (a dose-response plot with a Hill fit).
Representative examples of the invention were tested for extracellular inhibition of NaV 1.7 in the automated patch clamp assay. Activity Range is reported as IC50: “++++” (<1 μM), “+++” (1-10 μM), “++” (10-30 μM) or “+” (>30 μM).

T1 sequence (Q15858 whole entry): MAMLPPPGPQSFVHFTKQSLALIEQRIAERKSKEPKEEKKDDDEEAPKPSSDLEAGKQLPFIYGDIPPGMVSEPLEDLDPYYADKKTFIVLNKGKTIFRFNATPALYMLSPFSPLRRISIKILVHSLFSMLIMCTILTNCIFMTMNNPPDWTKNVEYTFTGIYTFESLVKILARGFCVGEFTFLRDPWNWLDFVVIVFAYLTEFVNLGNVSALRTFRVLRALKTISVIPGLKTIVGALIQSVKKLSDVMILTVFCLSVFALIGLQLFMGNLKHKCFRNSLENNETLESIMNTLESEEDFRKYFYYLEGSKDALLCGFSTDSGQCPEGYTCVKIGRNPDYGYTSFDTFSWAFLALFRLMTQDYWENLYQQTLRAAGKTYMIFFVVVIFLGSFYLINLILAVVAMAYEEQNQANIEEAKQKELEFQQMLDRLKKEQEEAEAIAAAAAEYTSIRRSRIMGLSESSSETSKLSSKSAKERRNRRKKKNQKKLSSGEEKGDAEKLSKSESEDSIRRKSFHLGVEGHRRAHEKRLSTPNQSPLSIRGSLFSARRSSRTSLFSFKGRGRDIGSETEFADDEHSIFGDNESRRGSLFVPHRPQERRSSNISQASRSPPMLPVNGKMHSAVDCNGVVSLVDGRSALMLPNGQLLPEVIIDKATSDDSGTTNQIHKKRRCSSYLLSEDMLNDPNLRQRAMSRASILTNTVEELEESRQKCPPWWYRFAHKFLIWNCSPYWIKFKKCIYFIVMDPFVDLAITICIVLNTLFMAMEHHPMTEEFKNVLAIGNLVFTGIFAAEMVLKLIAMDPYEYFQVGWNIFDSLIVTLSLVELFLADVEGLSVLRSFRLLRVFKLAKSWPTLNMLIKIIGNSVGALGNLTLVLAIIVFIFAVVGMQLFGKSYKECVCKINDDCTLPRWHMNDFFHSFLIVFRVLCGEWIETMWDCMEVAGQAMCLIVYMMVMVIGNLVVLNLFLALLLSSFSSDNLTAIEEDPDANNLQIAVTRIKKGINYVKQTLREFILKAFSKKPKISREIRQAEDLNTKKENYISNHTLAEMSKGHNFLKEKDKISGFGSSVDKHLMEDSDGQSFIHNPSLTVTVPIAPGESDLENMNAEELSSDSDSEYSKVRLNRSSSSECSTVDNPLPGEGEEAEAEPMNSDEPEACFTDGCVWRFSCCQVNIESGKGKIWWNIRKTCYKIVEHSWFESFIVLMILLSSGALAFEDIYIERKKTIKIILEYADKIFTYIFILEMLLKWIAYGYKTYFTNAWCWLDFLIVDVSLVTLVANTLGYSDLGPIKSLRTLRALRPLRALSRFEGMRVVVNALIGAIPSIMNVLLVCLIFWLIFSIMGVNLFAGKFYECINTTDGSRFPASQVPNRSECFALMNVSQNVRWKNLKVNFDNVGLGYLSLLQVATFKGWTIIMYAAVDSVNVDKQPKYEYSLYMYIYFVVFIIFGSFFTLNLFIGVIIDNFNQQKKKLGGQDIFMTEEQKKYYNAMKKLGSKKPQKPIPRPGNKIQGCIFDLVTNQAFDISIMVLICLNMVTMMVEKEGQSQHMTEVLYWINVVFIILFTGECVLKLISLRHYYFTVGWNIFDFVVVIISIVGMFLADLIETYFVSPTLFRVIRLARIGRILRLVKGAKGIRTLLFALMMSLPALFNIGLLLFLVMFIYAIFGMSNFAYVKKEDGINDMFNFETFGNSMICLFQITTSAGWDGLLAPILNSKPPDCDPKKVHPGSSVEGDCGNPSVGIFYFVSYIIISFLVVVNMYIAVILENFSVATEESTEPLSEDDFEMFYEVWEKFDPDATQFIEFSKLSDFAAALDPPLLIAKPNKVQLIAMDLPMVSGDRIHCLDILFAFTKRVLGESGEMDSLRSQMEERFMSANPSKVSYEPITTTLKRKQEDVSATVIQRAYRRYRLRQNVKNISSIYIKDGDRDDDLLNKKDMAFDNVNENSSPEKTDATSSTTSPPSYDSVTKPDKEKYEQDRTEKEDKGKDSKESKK

Question: With `COC(=O)C[N+]1(CC(=O)Nc2c(C)cccc2C(=O)OC)CCCC(c2ccccc2)C1` (mixture of isomers) [Compound 64] as the compound, how does the IC50 [1] read?
Answer: Its IC50 is under 1000 nM.

Question: Which IC50 [1] does the source give for `CCCOC(=O)C1CCC[N+](CC)(CC(=O)Nc2c(C)cccc2C(=O)OC)C1.[I-]` (centres unmarked) [Compound 26] here?
Answer: Its IC50 is 1000 to 3000 nM.

Question: How did the IC50 [2] turn out when `COC(=O)c1cccc(C)c1NC(=O)C[N+]1(Cc2ccccc2)CCCCC1.[Br-]` [Compound 3] was run?
Answer: Its IC50 is over 30000 nM.

Question: What about the IC50 [1] of the same compound?
Answer: Its IC50 is 1000 to 3000 nM.

Question: Which IC50 [2] does the source give for `CC[N+]1(CC(=O)Nc2c(C)cccc2C(=O)OC)CCCC(C(N)=O)C1.[I-]` (centres unmarked) [Compound 55] here?
Answer: Its IC50 is over 30000 nM.

Question: And the IC50 [1]?
Answer: The IC50 was 3000 to 10000 nM.

Question: How did the IC50 [2] turn out when `CC[N+]1(CC(=O)Nc2c(C)cccc2C(=O)OC)CCCC(C(=O)OCC(C)C)C1.[I-]` (centres unmarked) [Compound 23] was run?
Answer: The IC50 was over 30000 nM.

Question: And the IC50 [1]?
Answer: Its IC50 is under 1000 nM.

Question: With `COC(=O)c1cccc(C)c1NC(=O)C[N+]1(Cc2ccccc2)CCCC(C(=O)N(C)C)C1` (mixture of isomers) [Compound 40] as the compound, how does the IC50 [1] read?
Answer: The IC50 was under 1000 nM.

Question: For `CCOC(=O)c1cccc(C)c1NC(=O)C[N+]1(Cc2ccccc2)CCCCCC1` [Compound 2], which IC50 [2] is on record?
Answer: Its IC50 is 1000 to 10000 nM.

Question: And the IC50 [1]?
Answer: Its IC50 is under 1000 nM.

Question: With `CCOC(=O)c1cccc(C)c1NC(=O)C[N+]1(Cc2ccccc2)CCCCC1.[Br-]` [Compound 4] as the compound, how does the IC50 [2] read?
Answer: The IC50 was 1000 to 10000 nM.

Question: What about the IC50 [1] of the same compound?
Answer: The IC50 was under 1000 nM.

Question: With `CC[N+]1(CC(=O)Nc2c(C)cccc2C(=O)OC)CCCC(C(=O)OC2CCCCC2)C1` (mixture of isomers) [Compound 27] as the compound, how does the IC50 [1] read?
Answer: Its IC50 is 1000 to 3000 nM.

Question: Which IC50 [1] does the source give for `CNC(=O)C[N+]1(CC(=O)Nc2c(C)cccc2C(=O)OC)CCCC(c2ccccc2)C1.[Br-]` (mixture of isomers) [Compound 59] here?
Answer: The IC50 was under 1000 nM.

Question: For `COC(=O)c1cccc(C)c1NC(=O)C[N+]1(CC(N)=O)CCCC(c2ccccc2)C1` (mixture of isomers) [Compound 61], which IC50 [1] is on record?
Answer: Its IC50 is under 1000 nM.

Question: Which IC50 [1] does the source give for `CCCOC(=O)c1cccc(C)c1NC(=O)C[N+]1(Cc2ccccc2)CCCCCC1.[Br-]` [Compound 6] here?
Answer: Its IC50 is 1000 to 3000 nM.

Question: `CCCCOC(=O)C1CCC[N+](CC(=O)Nc2c(C)cccc2C(=O)OC)(Cc2ccccc2)C1.[Br-]` (mixture of isomers) [Compound 14] was tested. Which IC50 [1] did it give?
Answer: The IC50 was 1000 to 3000 nM.

Question: `COC(=O)c1cccc(C)c1NC(=O)C[N+]1(Cc2ccccc2)CCCC1` [Compound 5] was tested. Which IC50 [2] did it give?
Answer: Its IC50 is over 30000 nM.

Question: And the IC50 [1]?
Answer: Its IC50 is 1000 to 3000 nM.

Question: `CCN(CC)C(=O)C[N+]1(CC(=O)Nc2c(C)cccc2C(=O)OC)CCCC(c2ccccc2)C1` (mixture of isomers) [Compound 62] was tested. Which IC50 [1] did it give?
Answer: Its IC50 is 1000 to 3000 nM.

Question: What does the source list for `CCOC(=O)C1CCC[N+](CC(=O)Nc2c(C)cccc2C(=O)OC)(Cc2ccccc2)C1` (mixture of isomers) [Compound 16]?
Answer: IC50 [2]: 1000 to 10000 nM; IC50 [1]: < 1000 nM

Question: `CNC(=O)C1CCC[N+](CC(=O)Nc2c(C)cccc2C(=O)OC)(Cc2ccccc2)C1` (mixture of isomers) [Compound 31] was tested. Which IC50 [2] did it give?
Answer: Its IC50 is over 30000 nM.

Question: What about the IC50 [1] of the same compound?
Answer: Its IC50 is under 1000 nM.

Question: Which results are given for `CCCNC(=O)C1CCC[N+](CC(=O)Nc2c(C)cccc2C(=O)OC)(Cc2ccccc2)C1` (mixture of isomers) [Compound 28]?
Answer: IC50 [2]: 10000 to 30000 nM; IC50 [1]: < 1000 nM

Question: What does the source list for `COC(=O)c1cccc(C)c1NC(=O)C[N+]1(Cc2ccccc2)CCCC(C(N)=O)C1.[Br-]` (centres unmarked) [Compound 30]?
Answer: IC50 [2]: > 30000 nM; IC50 [1]: < 1000 nM

Question: Which results are given for `COC(=O)c1cccc(C)c1NC(=O)C[n+]1cccc(-c2ccccc2)c1.[Br-]` [Compound 66]?
Answer: IC50 [2]: 10000 to 30000 nM; IC50 [1]: < 1000 nM

Question: How did the IC50 [1] turn out when `CC[N+]1(CC(=O)Nc2c(C)cccc2C(=O)OC)CCCC(C(=O)N2CCCC2)C1` (mixture of isomers) [Compound 54] was run?
Answer: The IC50 was 1000 to 3000 nM.

Reference: US10927096B2, “Ester substituted ion channel blockers and methods for use” (Nocion Therapeutics, Inc., priority 2019, dated 2021)
